The source made the active and inactive calls. The rule behind the calls is not given here.
Assays:
[1] = target: cGMP-dependent protein kinase 2 (Homo sapiens) (UniProt Q13237); test: Inhibition of recombinant human full length GST-tagged PRKG2 expressed in insect cells at 2 uM using Ser/Thr 01 as substrate measured after 1 hr by Z'-LYTE assay relative to control; settings: Insect cell
[2] = target: Serine/threonine-protein kinase Nek9 (Homo sapiens) (UniProt Q8TD19); test: Inhibition of recombinant human GST-tagged NEK9 (347-732 residues) expressed in insect cells at 2 uM using Ser/Thr 07 as substrate measured after 1 hr by Z'-LYTE assay relative to control; settings: Insect cell
PC3MM2 = test: Antitumor activity against human PC3MM2 cells xenografted in female nude mouse model assessed as reduction in P-AKT at T308 level at 50 mg/kg, iv administered once a week and measured at least 8 hrs by immunoblot analysis; type: functional, organism-based
[3] = target: NT-3 growth factor receptor (Homo sapiens) (UniProt Q16288); test: Inhibition of recombinant human His-tagged NTRK3 (510-825 residues) expressed in baculovirus expression system at 2 uM using Tyr 01 as substrate measured after 1 hr by Z'-LYTE assay relative to control
[4] = target: Ephrin type-B receptor 2 (Homo sapiens) (UniProt P29323); test: Inhibition of recombinant human GST-tagged EPHB2 (616-884 residues) expressed in insect cells at 2 uM using Tyr 02 as substrate measured after 1 hr by Z'-LYTE assay relative to control; settings: Insect cell
MDA-MB-361 [5] = test: Antitumor activity against human MDA-MB-361 cells xenografted in female nude mouse model assessed as tumor growth delay at po qd administered as 5 days on/2 days off regimen for 4 cycles; type: functional, organism-based; settings: dose 5-20 mg/kg, time 28.0 day
[6] = target: Tyrosine-protein kinase ABL2 (Homo sapiens) (UniProt P42684); test: Inhibition of recombinant human full-length His-tagged ABL2 expressed in insect cells at 2 uM using Tyr 02 as substrate measured after 1 hr by Z'-LYTE assay relative to control; settings: Insect cell
[7] = target: Serine/threonine-protein kinase MARK2 (Homo sapiens) (UniProt Q7KZI7); test: Inhibition of recombinant human full length GST-tagged MARK2 expressed in insect cells at 2 uM using Ser/Thr 21 as substrate measured after 1 hr by Z'-LYTE assay relative to control; settings: Insect cell
[8] = target: Serine/threonine-protein kinase Sgk2 (Homo sapiens) (UniProt Q9HBY8); test: Inhibition of recombinant human GST-tagged SGK2 (54-427 residues) expressed in insect cells at 2 uM using Ser/Thr 06 as substrate measured after 1 hr by Z'-LYTE assay relative to control; settings: Insect cell
A498 = test: cells; settings: Homo sapiens, A498, 24 h
Description: Antiproliferative activity against human A498 cells assessed as cell growth inhibition incubated for 1 days by MTS assay

MDA-MB-361 [9] = test: Antitumor activity against human MDA-MB-361 cells xenografted in female nude mouse model assessed as P-AKT at T308 level at 6 to 12 mg/kg, po qd administered as 5 days on/2 days off regimen for 4 cycles by immunoblot analysis; type: functional, organism-based; settings: dose 6-12 mg/kg, time 28.0 day
HCT-116 = test: Induction of apoptosis in human HCT-116 cells assessed as increase in PARP cleavage at 0.3 to 3 micromol/L incubated for 48 hrs by Western blot analysis; type: functional, cell-based; settings: dose 0.3-3 µmol/L
MDA-MB-361 [10] = test: Antitumor activity against human MDA-MB-361 cells xenografted in female nude mouse model assessed as suppression in P-S6 level at 6 to 12 mg/kg, po qd administered as 5 days on/2 days off regimen for 4 cycles by immunoblot analysis; type: functional, organism-based; settings: dose 6-12 mg/kg, time 28.0 day
[11] = target: Protein-tyrosine kinase 6 (Homo sapiens) (UniProt Q13882); test: Inhibition of recombinant human full length His-tagged PTK6 expressed in baculovirus expression system at 2 uM using […] as substrate measured after 1 hr by Z'-LYTE assay relative to control
[12] = target: Dual specificity protein kinase CLK2 (Homo sapiens) (UniProt P49760); test: Inhibition of recombinant human GST-tagged CLK2 (137-498 residues) expressed in insect cells at 2 uM using Ser/Thr 06 as substrate measured after 1 hr by Z'-LYTE assay relative to control; settings: Insect cell
MDA-MB-361 [13] = test: Induction of apoptosis in PI3K/mTOR hyperactive human MDA-MB-361 cells assessed as massive cell death at 0.001 to 100 micromol/L incubated for 48 hrs by FACS analysis; type: functional, cell-based; settings: dose 0.001-100 µmol/L
U-87 MG = test: Induction of apoptosis in human U-87MG cells assessed as reduction in S phase at 1 micromol/L incubated for 24 hrs by FACS analysis; type: functional, cell-based; settings: U-87MG ATCC, dose 1.0 µmol/L
[14] = target: Myosin light chain kinase 2, skeletal/cardiac muscle (Homo sapiens) (UniProt Q9H1R3); test: Inhibition of recombinant human full length GST-tagged MYLK2 expressed in insect cells at 2 uM using Ser/Thr 13 as substrate measured after 1 hr by Z'-LYTE assay relative to control; settings: Insect cell
[15] = target: Hepatocyte growth factor receptor (Homo sapiens) (UniProt P08581); test: Inhibition of recombinant human His-tagged MET (956-1390 residues) expressed in baculovirus expression system at 2 uM using Tyr 06 as substrate measured after 1 hr by Z'-LYTE assay relative to control
MDA-MB-361 [16] = test: Induction of apoptosis in HER2 hyperactive human MDA-MB-361 cells assessed as cell death at 0.001 to 100 micromol/L incubated for 24 hrs by FACS analysis; type: functional, cell-based; settings: dose 0.001-100 µmol/L
[17] = target: Serine/threonine-protein kinase D2 (Homo sapiens) (UniProt Q9BZL6); test: Inhibition of recombinant human full length GST-tagged PRKD2 expressed in insect cells at 2 uM using Ser/Thr 17 as substrate measured after 1 hr by Z'-LYTE assay relative to control; settings: Insect cell
[18] = target: Serine/threonine-protein kinase PLK1 (Homo sapiens) (UniProt P53350); test: Inhibition of recombinant human full length His-tagged PLK1 expressed in insect cells at 2 uM using Ser/Thr 16 as substrate measured after 1 hr by Z'-LYTE assay relative to control; settings: Insect cell
[19] = target: Serine/threonine-protein kinase N1 (Homo sapiens) (UniProt Q16512); test: Inhibition of recombinant human full length GST-tagged PKN1 expressed in insect cells at 2 uM using Ser/Thr 07 as substrate measured after 1 hr by Z'-LYTE assay relative to control; settings: Insect cell
[20] = target: Serine/threonine-protein kinase MRCK beta (Homo sapiens) (UniProt Q9Y5S2); test: Inhibition of recombinant human His-tagged CDC42BPB (1-473 residues) expressed in baculovirus expression system at 2 uM using Ser/Thr 13 as substrate measured after 1 hr by Z'-LYTE assay relative to control
[21] = target: Ephrin type-A receptor 1 (Homo sapiens) (UniProt P21709); test: Inhibition of recombinant human GST-tagged EPHA1 (568-976 residues) expressed in insect cells at 2 uM using Tyr 02 as substrate measured after 1 hr by Z'-LYTE assay relative to control; settings: Insect cell

cGMP-dependent protein kinase 2 (Homo sapiens), sequence (Q13237 whole entry, the tested form may be a part): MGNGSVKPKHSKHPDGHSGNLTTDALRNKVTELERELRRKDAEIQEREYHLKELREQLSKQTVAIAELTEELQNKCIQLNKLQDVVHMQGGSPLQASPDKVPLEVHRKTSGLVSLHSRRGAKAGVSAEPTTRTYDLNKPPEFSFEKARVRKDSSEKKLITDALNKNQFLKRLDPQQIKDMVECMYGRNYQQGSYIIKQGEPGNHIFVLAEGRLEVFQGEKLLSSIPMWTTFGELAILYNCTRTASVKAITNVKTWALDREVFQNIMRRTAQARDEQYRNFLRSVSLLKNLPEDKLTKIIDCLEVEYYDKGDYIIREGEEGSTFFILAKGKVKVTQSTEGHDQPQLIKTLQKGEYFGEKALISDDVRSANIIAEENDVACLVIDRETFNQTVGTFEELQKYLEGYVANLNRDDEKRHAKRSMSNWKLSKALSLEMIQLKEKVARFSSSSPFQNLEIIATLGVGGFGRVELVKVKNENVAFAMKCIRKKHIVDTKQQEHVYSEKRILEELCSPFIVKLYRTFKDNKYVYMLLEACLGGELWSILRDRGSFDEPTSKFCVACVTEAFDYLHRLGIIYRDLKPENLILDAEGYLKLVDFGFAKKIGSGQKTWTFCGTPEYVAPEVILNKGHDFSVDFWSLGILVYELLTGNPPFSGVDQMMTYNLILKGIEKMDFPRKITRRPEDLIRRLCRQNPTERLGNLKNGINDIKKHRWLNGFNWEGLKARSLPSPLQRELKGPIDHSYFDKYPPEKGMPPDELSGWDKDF
Serine/threonine-protein kinase PLK1 (Homo sapiens), sequence (P53350 whole entry): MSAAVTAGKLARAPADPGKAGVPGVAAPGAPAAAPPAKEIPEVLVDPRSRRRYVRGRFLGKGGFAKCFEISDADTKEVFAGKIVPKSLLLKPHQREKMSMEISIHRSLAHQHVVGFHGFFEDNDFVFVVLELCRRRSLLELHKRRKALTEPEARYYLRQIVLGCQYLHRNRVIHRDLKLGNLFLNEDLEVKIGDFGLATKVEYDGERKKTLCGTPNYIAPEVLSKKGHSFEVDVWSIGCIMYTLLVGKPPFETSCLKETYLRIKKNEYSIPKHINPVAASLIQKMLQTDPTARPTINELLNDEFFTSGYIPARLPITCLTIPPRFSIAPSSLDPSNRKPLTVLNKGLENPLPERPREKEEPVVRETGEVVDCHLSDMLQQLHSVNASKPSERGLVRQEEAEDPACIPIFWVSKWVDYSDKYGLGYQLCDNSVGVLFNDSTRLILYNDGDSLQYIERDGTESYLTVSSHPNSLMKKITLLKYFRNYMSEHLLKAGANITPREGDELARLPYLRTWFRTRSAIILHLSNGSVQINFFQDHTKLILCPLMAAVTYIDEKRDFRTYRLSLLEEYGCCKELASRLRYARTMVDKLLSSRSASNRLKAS
Tyrosine-protein kinase ABL2 (Homo sapiens), sequence (P42684 whole entry): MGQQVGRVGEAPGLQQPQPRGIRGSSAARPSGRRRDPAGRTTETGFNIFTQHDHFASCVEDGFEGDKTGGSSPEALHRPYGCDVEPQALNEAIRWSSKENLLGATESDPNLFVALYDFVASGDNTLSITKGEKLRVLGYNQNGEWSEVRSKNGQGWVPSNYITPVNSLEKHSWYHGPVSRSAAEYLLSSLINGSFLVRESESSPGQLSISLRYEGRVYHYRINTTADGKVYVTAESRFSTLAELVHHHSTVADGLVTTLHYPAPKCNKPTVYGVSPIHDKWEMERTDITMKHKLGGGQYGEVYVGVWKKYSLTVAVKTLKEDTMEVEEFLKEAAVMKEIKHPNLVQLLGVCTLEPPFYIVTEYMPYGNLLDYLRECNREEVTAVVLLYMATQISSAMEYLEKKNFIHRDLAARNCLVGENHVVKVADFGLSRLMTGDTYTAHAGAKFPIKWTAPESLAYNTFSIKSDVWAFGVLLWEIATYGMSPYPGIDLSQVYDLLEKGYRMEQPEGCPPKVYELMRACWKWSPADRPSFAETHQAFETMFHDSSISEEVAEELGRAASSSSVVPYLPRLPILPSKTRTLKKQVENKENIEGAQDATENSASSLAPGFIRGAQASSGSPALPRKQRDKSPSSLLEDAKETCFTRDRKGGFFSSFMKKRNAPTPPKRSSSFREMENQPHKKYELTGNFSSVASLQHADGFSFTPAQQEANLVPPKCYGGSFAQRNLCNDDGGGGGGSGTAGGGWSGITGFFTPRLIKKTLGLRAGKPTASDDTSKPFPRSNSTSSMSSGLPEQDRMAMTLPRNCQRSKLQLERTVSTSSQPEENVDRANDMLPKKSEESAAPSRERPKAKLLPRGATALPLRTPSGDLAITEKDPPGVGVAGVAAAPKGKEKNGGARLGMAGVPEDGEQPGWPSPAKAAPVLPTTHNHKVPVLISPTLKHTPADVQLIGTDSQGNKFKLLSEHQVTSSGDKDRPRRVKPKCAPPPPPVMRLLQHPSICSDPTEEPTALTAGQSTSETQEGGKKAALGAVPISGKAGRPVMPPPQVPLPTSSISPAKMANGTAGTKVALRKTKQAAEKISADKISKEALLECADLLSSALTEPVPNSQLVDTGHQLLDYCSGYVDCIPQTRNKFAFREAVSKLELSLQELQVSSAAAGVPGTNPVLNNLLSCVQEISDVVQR
Hepatocyte growth factor receptor (Homo sapiens), sequence (P08581 whole entry, the tested form may be a part): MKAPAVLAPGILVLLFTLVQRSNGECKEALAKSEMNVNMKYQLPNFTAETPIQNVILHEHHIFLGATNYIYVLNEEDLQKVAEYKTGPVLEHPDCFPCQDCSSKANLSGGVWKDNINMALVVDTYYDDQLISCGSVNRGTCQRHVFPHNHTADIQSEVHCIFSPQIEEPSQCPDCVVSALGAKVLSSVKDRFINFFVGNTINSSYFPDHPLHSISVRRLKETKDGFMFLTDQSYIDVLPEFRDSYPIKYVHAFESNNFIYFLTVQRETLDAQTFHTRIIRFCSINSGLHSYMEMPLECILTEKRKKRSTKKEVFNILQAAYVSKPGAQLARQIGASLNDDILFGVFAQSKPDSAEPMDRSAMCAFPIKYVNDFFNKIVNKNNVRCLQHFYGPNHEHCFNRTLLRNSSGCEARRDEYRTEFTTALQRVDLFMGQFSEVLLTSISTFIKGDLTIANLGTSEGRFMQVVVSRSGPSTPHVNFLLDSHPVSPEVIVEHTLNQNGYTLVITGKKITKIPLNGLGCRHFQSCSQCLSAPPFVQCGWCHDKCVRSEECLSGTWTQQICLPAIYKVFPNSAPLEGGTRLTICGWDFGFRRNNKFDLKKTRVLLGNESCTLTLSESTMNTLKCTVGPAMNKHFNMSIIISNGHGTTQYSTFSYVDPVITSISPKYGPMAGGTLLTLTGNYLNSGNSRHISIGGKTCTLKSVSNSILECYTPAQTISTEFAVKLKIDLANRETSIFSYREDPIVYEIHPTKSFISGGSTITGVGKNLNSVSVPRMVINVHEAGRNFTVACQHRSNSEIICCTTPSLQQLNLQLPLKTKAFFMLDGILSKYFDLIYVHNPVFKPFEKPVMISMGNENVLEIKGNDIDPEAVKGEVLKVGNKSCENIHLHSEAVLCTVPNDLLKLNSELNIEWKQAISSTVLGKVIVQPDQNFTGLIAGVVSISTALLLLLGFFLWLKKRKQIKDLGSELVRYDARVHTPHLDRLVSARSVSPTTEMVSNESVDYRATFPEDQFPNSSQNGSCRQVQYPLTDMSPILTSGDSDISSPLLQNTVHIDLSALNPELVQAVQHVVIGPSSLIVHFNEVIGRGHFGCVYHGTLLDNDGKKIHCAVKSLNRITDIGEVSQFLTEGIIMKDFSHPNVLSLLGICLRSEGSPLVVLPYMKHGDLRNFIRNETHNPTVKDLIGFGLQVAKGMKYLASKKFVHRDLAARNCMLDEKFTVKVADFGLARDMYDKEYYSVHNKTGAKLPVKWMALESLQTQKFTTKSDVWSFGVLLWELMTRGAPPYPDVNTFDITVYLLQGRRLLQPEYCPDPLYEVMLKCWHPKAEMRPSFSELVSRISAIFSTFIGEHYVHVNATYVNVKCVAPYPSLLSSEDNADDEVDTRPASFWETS
Serine/threonine-protein kinase Nek9 (Homo sapiens), sequence (Q8TD19 whole entry, the tested form may be a part): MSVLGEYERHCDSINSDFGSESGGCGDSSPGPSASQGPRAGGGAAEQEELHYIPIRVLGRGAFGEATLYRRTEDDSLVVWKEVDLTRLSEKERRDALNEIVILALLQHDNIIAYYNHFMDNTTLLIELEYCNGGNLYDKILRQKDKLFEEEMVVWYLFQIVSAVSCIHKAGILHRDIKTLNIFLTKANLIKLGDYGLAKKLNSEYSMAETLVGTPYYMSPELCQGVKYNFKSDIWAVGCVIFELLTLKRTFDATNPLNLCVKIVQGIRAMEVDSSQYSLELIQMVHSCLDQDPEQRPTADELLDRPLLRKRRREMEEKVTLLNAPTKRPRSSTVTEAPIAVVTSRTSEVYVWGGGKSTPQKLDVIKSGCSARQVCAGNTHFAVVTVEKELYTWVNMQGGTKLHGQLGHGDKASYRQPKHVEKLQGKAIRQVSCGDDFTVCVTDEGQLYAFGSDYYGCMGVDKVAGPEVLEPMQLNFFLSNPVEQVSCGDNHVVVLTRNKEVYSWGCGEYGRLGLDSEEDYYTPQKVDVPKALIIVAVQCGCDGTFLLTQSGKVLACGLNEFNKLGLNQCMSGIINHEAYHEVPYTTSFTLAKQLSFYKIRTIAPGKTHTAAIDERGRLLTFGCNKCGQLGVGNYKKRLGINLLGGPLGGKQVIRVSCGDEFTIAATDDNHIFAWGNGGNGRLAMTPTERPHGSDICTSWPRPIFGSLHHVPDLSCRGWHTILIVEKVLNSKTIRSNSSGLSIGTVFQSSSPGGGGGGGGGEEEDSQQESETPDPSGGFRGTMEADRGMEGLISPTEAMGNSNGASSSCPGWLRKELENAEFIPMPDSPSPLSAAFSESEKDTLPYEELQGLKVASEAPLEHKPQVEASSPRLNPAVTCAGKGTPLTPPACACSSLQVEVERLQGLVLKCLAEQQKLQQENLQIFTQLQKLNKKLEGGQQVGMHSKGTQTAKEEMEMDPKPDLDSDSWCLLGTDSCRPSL

## CNC(=O)Nc1ccc(-c2nc(N3CC4CCC(C3)O4)c3cnn(C4CCC5(CC4)OCCO5)c3n2)cc1
[1]
  inhibition: 9%
[2]
  inhibition: -2%
PC3MM2
  Activity: inactive
[3]
  inhibition: 5%
[4]
  inhibition: 6%
MDA-MB-361 [5]
  Activity: Dose-Dependent Effect
[6]
  inhibition: 13%
[7]
  inhibition: 12%
[8]
  inhibition: 5%
A498
  IC50: > 20 µM
MDA-MB-361 [9]
  Activity: inactive
HCT-116
  Activity: inactive
MDA-MB-361 [10]
  Activity: Active
[11]
  inhibition: 8%
[12]
  inhibition: 0%
MDA-MB-361 [13]
  Activity: Active
U-87 MG
  Activity: Active
[14]
  inhibition: 8%
[15]
  inhibition: 2%
MDA-MB-361 [16]
  Activity: Active
[17]
  inhibition: 1%
[18]
  inhibition: -4%
[19]
  inhibition: 14%
[20]
  inhibition: 9%
[21]
  inhibition: 3%

From ChEMBL document CHEMBL5696439 (Cancer Res, 2010)
